Results reported in ChEMBL document CHEMBL1136094, “Novel, potent and selective cyclin D1/CDK4 inhibitors: indolo[6,7-a]pyrrolo[3,4-c]carbazoles” (Bioorg Med Chem Lett, 2003).
In brackets after ≈: the same amount, converted by molar mass.

Legend:
[1] = biological target: Cyclin-dependent kinase 2/cyclin E (Homo sapiens, UniProt P24941); assay: Inhibitory activity against Cyclin E-cyclin-dependent kinase 2 in enzymatic assay by measuring phosphorylation of RbING; assay type: protein-complex assay
[2] = biological target: T1, Cyclin-dependent kinase 4/cyclin D1 (Homo sapiens, UniProt P11802); assay: Inhibitory activity against Cyclin D1-cyclin-dependent kinase 4 in enzymatic assay by measuring phosphorylation of Rb21; assay type: protein-complex assay
HCT-116 [3] = assay: In vitro antiproliferative activity against human carcinoma cell line HCT116 (colon); assay type: functional, cell-based
[4] = biological target: T1, Cyclin-dependent kinase 4/cyclin D1; assay: Inhibitory activity against Cyclin D1-cyclin-dependent kinase 4 in enzymatic assay by measuring phosphorylation of RbING; assay type: protein-complex assay
HCT-116 [5] = assay: Flow cytometry of HCT116 cells, G1 arrest ( fold increase over control) after 24 hr r; assay type: functional, Homo sapiens
[6] = biological target: Cyclin-dependent kinase 4 (Homo sapiens) (UniProt P11802); assay: Inhibition of Rb phosphorylation at the CDK4 specific Ser780 residue (1 fold increase over control) after 24 hr incubation in HCT116 cells; assay type: functional, cell-based; conditions: HCT-116, concentration not given here
[7] = biological target: cAMP-dependent protein kinase (PKA) (Homo sapiens, UniProt P22694+P17612+P22612); assay: Inhibitory activity against Protein kinase A (Histone); assay type: protein assay
HCT-116 [8] = assay: Flow cytometry of HCT116 cells, G1 arrest (fold increase over control) after 24 hr r incubation; assay type: functional, Homo sapiens
[9] = biological target: Cyclin-dependent kinase 4 (Homo sapiens) (UniProt P11802); assay: Inhibition of Rb phosphorylation at the CDK4 specific Ser780 residue (3 fold increase over control) after 24 hr incubation in HCT116 cells; assay type: functional, cell-based; conditions: HCT-116, concentration not given here
NCI-H460 = assay: In vitro antiproliferative activity against human carcinoma cell line H460 (lung); assay type: functional, cell-based
HCT-116 [10] = assay: GI arrest (1 fold increase over control) in HCT116 cells was determined by flow cytometry after 24 hr incubation; assay type: functional, Homo sapiens
HCT-116 [11] = assay: GI arrest (3 fold increase over control) in HCT116 cells was determined by flow cytometry after 24 hr incubation; assay type: functional, Homo sapiens
CaM kinase II = CaM kinase II (Homo sapiens, UniProt Q13557+Q13555+Q13554+Q9UQM7); assay: Inhibitory activity against Calcium/calmodulin-dependent protein kinase type II; assay type: protein assay
[12] = Aqueous solubility (in situ) in D5W after 1 week was determined; assay type: physicochemical; conditions: for solubility at 168 h: D5W
[13] = biological target: Cyclin-dependent kinase 2/cyclin E1 (Homo sapiens, UniProt P24941); assay: Inhibition of RbING phosphorylation by Cyclin E1-cyclin-dependent kinase 2; assay type: protein-complex assay
HCT-116 [14] = assay: Flow cytometry of HCT116 cells, G1 arrest (1 fold increase over control) after 24 hr r; assay type: functional, Homo sapiens
HCT-116 [15] = assay: (§1) Flow cytometry of HCT116 cells, G1 arrest (3 fold increase over control) after 24 hr r; assay type: functional, Homo sapiens
HCT-116 [16] = assay: Flow cytometry of HCT116 cells, G1 arrest (2.6 fold increase over control) after 24 hr r; assay type: functional, Homo sapiens
HCT-116 [17] = assay: as §1; assay type: functional
[18] = biological target: Cyclin-dependent kinase 4 (Homo sapiens) (UniProt P11802); assay: Inhibition of Cyclin-dependent kinase 4 specific Ser780 Rb phosphorylation, 3 fold increase over 24 hr incubation in HCT116 cells; assay type: functional, cell-based; conditions: HCT-116; concentration not given here

T1 sequence (P11802 whole entry): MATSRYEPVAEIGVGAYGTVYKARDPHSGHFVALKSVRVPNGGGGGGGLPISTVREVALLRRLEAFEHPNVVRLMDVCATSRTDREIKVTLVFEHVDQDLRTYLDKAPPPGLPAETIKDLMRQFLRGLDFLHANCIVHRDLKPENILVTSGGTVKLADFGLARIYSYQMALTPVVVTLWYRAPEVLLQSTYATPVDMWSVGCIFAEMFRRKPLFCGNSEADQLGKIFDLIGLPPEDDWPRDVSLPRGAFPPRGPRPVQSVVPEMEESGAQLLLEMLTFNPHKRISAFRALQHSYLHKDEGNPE
T1 sequence (P24385 whole entry, further chain): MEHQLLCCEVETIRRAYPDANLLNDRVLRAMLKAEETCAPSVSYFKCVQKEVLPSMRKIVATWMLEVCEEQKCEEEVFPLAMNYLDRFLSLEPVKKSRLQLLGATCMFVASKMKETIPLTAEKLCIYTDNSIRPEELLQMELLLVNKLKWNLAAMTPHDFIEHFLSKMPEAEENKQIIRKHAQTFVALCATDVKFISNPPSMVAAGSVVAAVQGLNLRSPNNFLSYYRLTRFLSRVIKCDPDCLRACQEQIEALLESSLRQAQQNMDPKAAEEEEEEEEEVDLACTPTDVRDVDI
Sequence of Cyclin-dependent kinase 4 (Homo sapiens) (P11802 whole entry): as the sequence (P11802 whole entry) above

Cn1ccc2ccc3c4[nH]c5ccccc5c4c4c(c3c21)C(=O)NC4=O
IC50 [1]: 75 nM | IC50 [2]: 22 nM | IC50 (HCT-116 [3]): 2110 nM | IC50 [4]: 47 nM | Fold increase (HCT-116 [5]): 2.5 | inhibition [6]: 63% | IC50 [7]: > 2000 nM | Fold increase (HCT-116 [8]): 1.4 | inhibition [9]: 97% | IC50 (NCI-H460): 1170 nM

COc1ccc2c3c4c(c5c(ccc6ccn(C)c65)c3n(CCCNCCO)c2c1)C(=O)NC4=O
IC50 [1]: 432 nM | Fold increase (HCT-116 [10]): 1.8 | IC50 [2]: 28 nM | IC50 (HCT-116 [3]): 1550 nM | IC50 [4]: 72 nM | Fold increase (HCT-116 [11]): 2.7 | inhibition [6]: 57% | IC50 [7]: 3150 nM | inhibition [9]: 78% | IC50 (NCI-H460): 1280 nM | IC50 (CaM kinase II): 732 nM | solubility at 168 h [12]: 8600 µg/mL (≈ 18.3 mM)

COc1ccc2c(c1)[nH]c1c3ccc4ccn(C)c4c3c3c(c21)C(=O)NC3=O
IC50 [1]: 112 nM | Fold increase (HCT-116 [10]): 2.6 | IC50 [2]: 6 nM | IC50 (HCT-116 [3]): 1800 nM | IC50 [4]: 53 nM | inhibition [6]: 90% | IC50 [7]: > 20000 nM | inhibition [9]: 97% | IC50 (NCI-H460): 1090 nM

Cn1ccc2ccc3c4[nH]c5c(CCN6CCCCC6)cccc5c4c4c(c3c21)C(=O)NC4=O
IC50 [1]: 1060 nM | Fold increase (HCT-116 [10]): 1.8 | IC50 (HCT-116 [3]): 2120 nM | IC50 [4]: 45 nM | Fold increase (HCT-116 [11]): 2.1 | inhibition [6]: 69% | IC50 [7]: 9140 nM | inhibition [9]: 78% | IC50 (NCI-H460): 2470 nM | IC50 (CaM kinase II): 62 nM | solubility at 168 h [12]: 8500 µg/mL (≈ 18.9 mM)

COc1cc2ccn(C)c2c2c3c(c4c5ccccc5[nH]c4c12)C(=O)NC3=O
IC50 [1]: 67 nM | Fold increase (HCT-116 [10]): 1.8 | IC50 [2]: 18 nM | IC50 (HCT-116 [3]): 1900 nM | IC50 [4]: 32 nM | Fold increase (HCT-116 [11]): 2.1 | inhibition [6]: 56% | inhibition [9]: 77% | IC50 (NCI-H460): 690 nM

COc1cc2c3[nH]c4ccccc4c3c3c(c2c2c1ccn2C)C(=O)NC3=O
IC50 [13]: 35 nM | Fold increase (HCT-116 [10]): 1.2 | IC50 (HCT-116 [3]): 1130 nM | IC50 [4]: 54 nM | Fold increase (HCT-116 [11]): 2.2 | inhibition [6]: 71% | IC50 [7]: 13200 nM | inhibition [9]: 86% | IC50 (NCI-H460): 710 nM

Cn1ccc2ccc3c4[nH]c5c(CCO)cccc5c4c4c(c3c21)C(=O)NC4=O
IC50 [1]: 210 nM | Fold increase (HCT-116 [14]): 1.4 | IC50 [2]: 75 nM | IC50 (HCT-116 [3]): 1130 nM | IC50 [4]: 82 nM | inhibition [6]: 60% | IC50 [7]: > 2000 nM | inhibition [9]: 92% | Fold increase (HCT-116 [15]): 2.7

Cn1ccc2ccc3c4[nH]c5c(CCN6CCOCC6)cccc5c4c4c(c3c21)C(=O)NC4=O
IC50 [1]: 1280 nM | Fold increase (HCT-116 [10]): 1.5 | IC50 [2]: 15 nM | IC50 (HCT-116 [3]): 1630 nM | IC50 [4]: 54 nM | Fold increase (HCT-116 [11]): 2.2 | IC50 [7]: > 20000 nM | IC50 (NCI-H460): 1910 nM | IC50 (CaM kinase II): 177 nM | solubility at 168 h [12]: 8700 µg/mL (≈ 19.2 mM)

COc1ccc2c3c4c(c5c(ccc6ccn(C)c65)c3n(CCNCCO)c2c1)C(=O)NC4=O
IC50 [1]: 89 nM | Fold increase (HCT-116 [10]): 3.1 | IC50 [2]: 21 nM | IC50 (HCT-116 [3]): 1470 nM | IC50 [4]: 35 nM | inhibition [6]: 71% | IC50 [7]: 3740 nM | inhibition [9]: 92% | IC50 (NCI-H460): 1310 nM | IC50 (CaM kinase II): 527 nM | solubility at 168 h [12]: 6000 µg/mL (≈ 13.1 mM)

Cn1ccc2ccc3c4[nH]c5c(CCN6CCC(C(N)=O)CC6)cccc5c4c4c(c3c21)C(=O)NC4=O
IC50 [1]: 796 nM | Fold increase (HCT-116 [10]): 1.9 | IC50 [2]: 5 nM | IC50 (HCT-116 [3]): 1000 nM | IC50 [4]: 51 nM | Fold increase (HCT-116 [11]): 2.2 | inhibition [6]: 52% | IC50 [7]: 5890 nM | inhibition [9]: 55% | IC50 (NCI-H460): 1350 nM | IC50 (CaM kinase II): 25 nM

COc1ccc2c3c4c(c5c(ccc6ccn(C)c65)c3n(CCCN3CCC(C(N)=O)CC3)c2c1)C(=O)NC4=O
IC50 [1]: 1000 nM | Fold increase (HCT-116 [10]): 1.9 | IC50 [2]: 13 nM | IC50 (HCT-116 [3]): 1960 nM | IC50 [4]: 77 nM | inhibition [6]: 58% | IC50 [7]: 3380 nM | Fold increase (HCT-116 [16]): 2.5 | inhibition [9]: 67% | IC50 (NCI-H460): 2440 nM | IC50 (CaM kinase II): 3050 nM

Cl.Cn1ccc2ccc3c4[nH]c5c(CCN6CCOCC6)cccc5c4c4c(c3c21)C(=O)NC4=O
Fold increase (HCT-116 [10]): 1.2 | Fold increase (HCT-116 [11]): 2.3

Cn1ccc2ccc3c4[nH]c5c(CCN[C@H]6CC[C@H](O)CC6)cccc5c4c4c(c3c21)C(=O)NC4=O
IC50 [1]: 450 nM | Fold increase (HCT-116 [10]): 2 | IC50 [2]: 5 nM | IC50 (HCT-116 [3]): 1230 nM | IC50 [4]: 53 nM | inhibition [6]: 78% | IC50 [7]: 9810 nM | inhibition [9]: 87% | IC50 (NCI-H460): 2820 nM | IC50 (CaM kinase II): 49 nM

COc1ccc2c3c4c(c5c(ccc6ccn(C)c65)c3n(CCCO)c2c1)C(=O)NC4=O
IC50 [1]: 113 nM | Fold increase (HCT-116 [10]): 2.4 | IC50 [2]: 12 nM | IC50 (HCT-116 [3]): 1620 nM | IC50 [4]: 54 nM | inhibition [6]: 66% | IC50 [7]: 1040 nM | inhibition [9]: 95% | IC50 (NCI-H460): 500 nM

COc1ccc2c3c4c(c5c(ccc6ccn(C)c65)c3n(CCN[C@H]3CC[C@H](O)CC3)c2c1)C(=O)NC4=O
IC50 [1]: 902 nM | IC50 [2]: 23 nM | IC50 (HCT-116 [3]): 890 nM | IC50 [4]: 63 nM | Fold increase (HCT-116 [11]): 2 | Fold increase (HCT-116 [17]): 2 | inhibition [6]: 67% | IC50 [7]: 18000 nM | IC50 (NCI-H460): 1050 nM | IC50 (CaM kinase II): 1170 nM | inhibition [18]: 95% | solubility at 168 h [12]: 7800 µg/mL (≈ 15.3 mM) | Solubility ([12]; buffer, 168 h): 7800 µg/mL (≈ 15.3 mM)
